The test system of the test is grape (species: "Italia"). Description: Fruit enlargement test, grape, dipping treatment of bunches. Particulars: for Mean bunch weight: 7 bunches; for One berry weight: bunch weight/total berry number. The test is classed as in vivo. The protocol:
Using grape (species: “Italia”) as a subject, a fruit enlargement test was done following the experimental summary described below. The test was carried out with 7 replication. Fifteen days after the full bloom, grape bunches were dipped in a chemical solution diluted to a predetermined concentration. The treated grape bunches were dried in air and grown as they were, until the bunches were harvested 43 days after the treatment to examine the bunch weight and the total number of grape berries. Five berries were randomly selected from each grape bunch of 5 replication among the test lots, for measuring the sugar level with a hand-held refracto-sugar meter manufactured by ATAGO CO., LTD (Type number: Nl). Additionally, a drug substance of gibberellin in powder (98% purity) was used as the gibberellin, while as the prohexadione calcium salt, a 27.5% formulation (the trade name: Viviful) was used, and as the trinexapac ethyl, a 25% formulation thereof (the trade name: Moddus) was used.
Material: Grape bunch “Italia” Fully bloomed on Sep. 21, 2006; starting the treatments on Oct. 6, 2006; harvested on Dec. 18, 2006: 7 bunches per one treatment lot.
C: Cont (control lot) G: dipping treatment in gibberellin (24.5 ppm) PCA: dipping treatment in prohexadione calcium salt (20 ppm, 100 ppm) GPCA: dipping treatment in gibberellin and prohexadione calcium salt (24.5 and 20 ppm, respectively or 24.5 ppm and 100 ppm, respectively) TR: dipping treatment in trinexapac ethyl (20 ppm, 100 ppm) G+TR: dipping treatment in gibberellin and trinexapac ethyl (24.5 ppm and 20 ppm, respectively or 24.5 ppm and 100 ppm, respectively).
Herein, statistical analysis was done by the Tukey's HSD test (p=0.05). Significant difference is observed between different alphabets.

Where a name gives a salt, the structure may show the parent alone.

As to `CCC(=O)C1=C(O)CC(C(=O)O)CC1=O` (centres unmarked) [PCA, prohexadione calcium salt], the Mean bunch weight runs as follows: (20 ppm) 452.9 g; (100 ppm) 390.0 g. The One berry weight runs as follows: (20 ppm) 7.3 g; (100 ppm) 6.4 g.
For the setting “20 ppm”, `CCOC(=O)C1CC(=O)C(=C(O)C2CC2)C(=O)C1` (centres unmarked) [TR, trinexapac ethyl] registered a Mean bunch weight of 487.1 g and an One berry weight of 7.9 g. In addition, where the note is “100 ppm”, the Mean bunch weight is listed as 474.3 g and the One berry weight was found to be 6.7 g.

The record behind these values is patent publication US20080280765A1, “Method of Promoting Enlargement Growth of Agricultural and Horticultural Crops” (priority 2006, published 2008).
